Test results taken from article PMC6105845, “Nucleotide Prodrug Containing a Nonproteinogenic Amino Acid To Improve Oral Delivery of a Hepatitis C Virus Treatment” (Antimicrobial Agents and Chemotherapy, 2018).
Where “and” joins values, the source holds several entries; their conditions need not be identical. Identical values can stand only once. Like-named read-outs stand apart in the source and are kept apart here.

Tests used:
[1] = test system: HCV GT1a, GT1b and GT2a replicons; test: HCV replicons GT1a, GT1b, GT2a in Huh-1C cells, summary across genotypes; assay type: cell-based, hepatitis C virus
Method: GT1a, GT1b, and GT2a are authentic subgenomic replicons of the indicated strain. Creation of these HCV replicons was reported previously ([7]).
RNA was transcribed in vitro using a MEGAscript […] kit (Ambion, Austin, TX) and transfected into Huh-Lunet and −1C cells using published methods ([21], [22]).
The EC50s, defined as the concentration at which there was a measured 50% decrease in HCV replicon level, were determined in replicon assay as previously described ([24]). Briefly, replicon cells were seeded into 96-well plates. Compounds were serially diluted in DMSO at 200× final concentrations and then added to the assay plate. Luciferase expression was quantified after 3 days of incubation using a commercial luciferase assay (Promega, Madison, WI). Data were analyzed using GraphPad Prism 6.0 (La Jolla, CA).
X represents log of compound concentration and Y represents replicon replication as the percentage of DMSO control. EC50s were calculated as an average from at least three independent experiments.

[2] = test system: chimeric HCV replicons GT2b, GT3a, GT4a, GT5a, GT6a; test: Chimeric replicons with NS5b of GT2b, GT3a, GT4a, GT5a, GT6a in GT1b background, transiently transfected Huh-1C cells; assay type: cell-based, hepatitis C virus
[3] = Plasma pharmacokinetics in pentagastrin-pretreated portal vein-cannulated dogs; assay type: in vivo, male beagle dogs; settings: for bioavailability / AUC(0-t) / Cmax: male, beagle; for bioavailability / Fa (fraction absorbed): oral 5 mg/kg vs 0.5 mg/kg intravenous infusion; for bioavailability: read-out: F (oral bioavailability)
Method: Plasma and liver pharmacokinetic studies were completed as described previously ([8]). Briefly, intact Golden Syrian hamsters, Sprague-Dawley rats, and beagle dogs (intact and portal vein cannulated) were orally administered a single dose of GS2 or GS2(R+S) in solution formulations at between 5 and 50 mg/kg of body weight. Similarly, studies were completed by administering GS-6620 or its 1:1 diastereomeric mixture in solution or micronized suspension formulations at between 5 and 21.1 mg/kg. Animal doses were chosen to correspond to surface area-adjusted human doses targeted for clinical development (150 to 500 mg). In order to understand hepatic extraction (EH), fraction absorbed (Fa), and oral bioavailability (F), intravenous (i.v.) and oral (p.o.) studies were conducted with GS2 and GS-6620 in intact and portal vein-cannulated dogs. Intravenous dosing used solution formulations at 0.5 mg/kg of the respective prodrugs. Animals were housed and handled in accordance with the Guide for the Care and Use of Laboratory Animals ([23]). The protocols were reviewed and approved by the Institutional Animal Care and Use Committees (IACUC).
Plasma samples were prepared through protein precipitation extraction by adding acetonitrile to a final concentration of 70% containing internal standard (5-iodotubericidin). Samples were dried completely under a stream of nitrogen at 40°C and reconstituted with 0.2% formic acid in water to 3 times the original volume of plasma for LC-MS/MS analysis. Liver samples were prepared by sectioning into smaller pieces and collecting into preweighed 15-ml conical tubes kept on dry ice. Ice-cold extraction buffer (0.1% KOH and 67 mM EDTA in 70% methanol containing chloro-ATP as an internal standard) was added to ∼0.5 g of each liver sample. The mixtures were promptly homogenized using an Omni-Tip TH with disposable, hard tissue homogenizer probes (Omni International). Aliquots of the homogenate were filtered by using 0.2-μm 96-well polypropylene filter plates (Varian Captiva). The filtrates were evaporated to dryness and reconstituted with an equal volume of 1 mM ammonium phosphate buffer (pH 7) prior to LC-MS/MS analysis. Plasma and liver samples were analyzed on a Sciex API-4000 (Applied Biosystems, Foster City, CA) LC-MS/MS instrument. Analytes in plasma samples were separated on a 4-μm, 150- by 2-mm Synergi Max-RP column (Phenomenex, Torrance, CA) using a mobile phase containing 0.2% formic acid and a linear gradient from 2% to 100% acetonitrile at a flow rate of 250 μl/min over 7 min. Analytes in liver samples were separated using a 50- by 2-mm by 2.5-μm Luna C18(2) HST column (Phenomenex, Torrance, CA). A multistage linear gradient from 10% (mobile phase A) to 50% acetonitrile (mobile phase B) in a mobile phase containing 3 mM ammonium formate (pH 5.0) with 10 mM dimethylhexylamine at a flow rate of 0.15 ml/min was used to elute the analytes.
Noncompartmental pharmacokinetic parameters were calculated using WinNonlin 5.01 (Pharsight Corporation, Mountain View, CA). Equations for calculating hepatic extraction (EH; equation 2), fraction absorbed (Fa; equation 3), and oral bioavailability (F; equation 4) have been presented previously ([25]). (2) EH=AUCPO,portal vein−AUCPO,jugular vein/AUCPO,portal vein (3) Fa=F/1−EH (4) F=AUCPO,jugular vein÷DosePO/AUCIV÷DoseIV

[4] = Metabolic stability in intestinal S9 fraction, human; assay type: in vitro ADME; settings: for half-life at 2 μM: intestinal S9 fraction
Method: Blood plasma and S9 stability was studied as described previously ([8]). In brief, the compounds were incubated at 2 μM in hamster, rat, dog, monkey, or human plasma samples for up to 4 h at 37°C. For S9 stability, the compounds were incubated at 2 μM in hamster, rat, dog, monkey, or human intestinal and hepatic S9 fractions for up to 90 min at 37°C in the presence of NADPH and uridine 5′-diphosphoglucuronic acid trisodium salt (UDPGA) (Sigma-Adrich). The samples were analyzed by liquid chromatography coupled to triple-quadrupole mass spectrometry (LC-MS/MS).
The data (analyte-to-internal standard peak area ratio) were plotted on a semilog scale and fitted using an exponential fit. The half-life (t1/2) was determined assuming first-order kinetics.

[5] = dog, plasma (jugular vein), oral 5 mg/kg, GS2 in solution, GS-6620 in suspension of micronized material, read-out: AUC0–t jugular
[6] = dog, plasma (jugular vein), oral 5 mg/kg, GS2 in solution, GS-6620 in suspension of micronized material, read-out: Cmax jugular
[7] = dog, plasma (portal vein), oral 5 mg/kg, GS2 in solution, GS-6620 in suspension of micronized material, read-out: AUC0–t portal
[8] = dog, plasma (portal vein), oral 5 mg/kg, GS2 in solution, GS-6620 in suspension of micronized material, read-out: Cmax portal
[9] = dog, plasma, 0.5-mg/kg intravenous infusion (30 min), n = 3, read-out: AUC0–t following intravenous infusion

CC(C)OC(=O)C(C)(C)N[P@](=O)(OC[C@H]1O[C@@](C#N)(c2ccc3c(N)ncnn23)[C@](C)(O)[C@@H]1O)Oc1ccccc1 [GS2]
potency relative to the fast-eluting isomer (more potent) ([1]; GT1a, 1b, 2a, Huh-1C): approximately 4 fold | activity relative to GS-6620, average across the three genotypes ([1]; Huh-1C cells): ≤ 3 fold | EC50 ([2]; Hepatitis C virus, read-out: potency): 91 to 158 nM | relative potency to GS-6620 ([2]; chimeric replicons GT2b-GT6a, Huh-1C): ≤ 2 fold | Fa in dog higher than corresponding L-alanine-containing prodrug ([3]; dog, in vivo): more than 5 fold | bioavailability ([3]; dog, plasma (jugular vein)): 13% | AUC(0-t) [3, 5]: 0.44 ± 0.09 µM·h | Cmax [3, 6]: 430 ± 90 nM | AUC(0-t) [3, 7]: 1.77 ± 0.26 µM·h | Cmax [3, 8]: 1610 ± 350 nM | AUC(0-t) [3, 9]: 0.34 µM·h | EH (hepatic extraction) ([3]; oral 5 mg/kg): 75% | maximal portal concentration lower than GS-6620 ([3]; oral 5 mg/kg): approximately 2 fold | Fa (fraction absorbed) [3]: 51.6% and 52% | stability in human intestinal S9 greater than GS-6620 [4]: 35 fold | half-life at 2 μM [4]: 9.5 h

CC(C)OC(=O)[C@H](C)N[P@](=O)(OC[C@H]1O[C@@](C#N)(c2ccc3c(N)ncnn23)[C@](C)(O)[C@@H]1OC(=O)C(C)C)Oc1ccccc1 [GS-6620, reference compound]
bioavailability ([3]; dog, plasma (jugular vein)): 15% | AUC(0-t) [3, 5]: 0.33 ± 0.28 µM·h | Cmax [3, 6]: 620 ± 430 nM | AUC(0-t) [3, 7]: 1.68 ± 0.8 µM·h | Cmax [3, 8]: 3650 ± 860 nM | AUC(0-t) [3, 9]: 0.2 µM·h | EH (hepatic extraction) ([3]; oral 5 mg/kg): 80% | Fa (fraction absorbed) [3]: 79% | time by which plasma concentration decreased to undetectable ([3]; oral 5 mg/kg, postdose): ≤ 2 h | half-life at 2 μM [4]: 0.283 h
